{"source": "patent US4465692A", "about": "(Nelson Research & Development Company, priority 1982, dated 1984)", "key": {"[1]": {"target": "D-1 receptor", "test": "D-1 receptor in carp retina (in vitro)", "conditions": "concentration of agonist required to inhibit the biochemical response by 50%, read-out: Fish retina D-1 receptor IC50"}, "[2]": {"target": "D-2 receptor (Rattus norvegicus, UniProt P61169)", "sequence (P61169 whole entry)": "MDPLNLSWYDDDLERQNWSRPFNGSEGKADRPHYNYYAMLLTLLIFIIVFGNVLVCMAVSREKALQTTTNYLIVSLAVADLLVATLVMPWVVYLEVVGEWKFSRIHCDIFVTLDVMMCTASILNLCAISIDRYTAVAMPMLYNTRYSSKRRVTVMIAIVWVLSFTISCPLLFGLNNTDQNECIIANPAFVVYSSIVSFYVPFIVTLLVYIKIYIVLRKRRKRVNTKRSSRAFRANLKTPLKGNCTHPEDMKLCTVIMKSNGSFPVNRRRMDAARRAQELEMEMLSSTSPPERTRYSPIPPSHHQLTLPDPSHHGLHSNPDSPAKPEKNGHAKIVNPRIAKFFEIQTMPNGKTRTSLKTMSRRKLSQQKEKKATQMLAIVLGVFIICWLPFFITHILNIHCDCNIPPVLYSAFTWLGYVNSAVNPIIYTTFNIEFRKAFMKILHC"}}, "data": [{"molecule": "CCCN(CCc1ccccc1)C1CCc2c(O)cccc2C1", "note": "(stereo not shown) [PPHT, 2-(N-phenylethyl-N-propylamino)-5-hydroxytetralin]", "values": [{"measurement": "IC50", "setting": "[1]", "result": 3.7, "unit": "µM"}, {"measurement": "times more potent than apomorphine at the D-2 receptor", "setting": "[2]; relative to apomorphine", "result": "approximately 40 times"}, {"measurement": "times more potent than dopamine at the D-2 receptor", "setting": "[2]; relative to dopamine", "result": 250, "unit": "times"}]}, {"molecule": "CN1CCc2cccc3c2[C@H]1Cc1ccc(O)c(O)c1-3", "note": "[Apomorphine, reference compound]", "values": [{"measurement": "IC50", "setting": "[1]", "result": 1.5, "unit": "µM"}]}]}
